# Assay results reported in the supplement of paper PMC10307832.
# Experiments:
# Assay in all cases: relative viability (nuclei count vs DMSO), 5 days (fraction); higher = more cells survive
# [1] = test system: LK-2
# Outline: (§1)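 Lung cancer cell lines were pin-tool dosed in 1536-well plates on the day after seeding, with either a lone drug or a fixed anchor-drug dose plus five library-drug doses (not always all listed) in √10 steps. Nuclei were counted on 4× images after 5 days. Relative viability is the ratio of treated-well to vehicle-well nuclei counts, with each value a median of duplicate plates.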
# [2] = test system: NCI-H661
# Outline: as §1
# [3] = test system: NCI-H520
# Outline: as §1
# [4] = test system: PC-3 [JPC-3]
# Outline: as §1
# [5] = test system: RERF-LC-KJ
# Outline: as §1
# [6] = test system: NCI-H1355
# Outline: as §1
# [7] = test system: NCI-H1563
# Outline: as §1
# [8] = test system: SW 1573
# Outline: as §1
# [9] = test system: HCC-827
# Outline: as §1
# [10] = test system: SK-MES-1
# Outline: as §1
# [11] = test system: NCI-H2405
# Outline: as §1
# [12] = test system: NCI-H2228
# Outline: as §1
# [13] = test system: NCI-H1651
# Outline: as §1
# [14] = test system: ABC-1
# Outline: as §1
# [15] = test system: PC-14
# Outline: as §1
# [16] = test system: HCC-15
# Outline: as §1
# [17] = test system: H3255
# Outline: as §1
# [18] = test system: COR-L23
# Outline: as §1
# [19] = test system: NCI-H1650
# Outline: as §1
# [20] = test system: EKVX
# Outline: as §1
# [21] = test system: NCI-H322M
# Outline: as §1
# [22] = test system: NCI-H1734
# Outline: as §1
# [23] = test system: CAL-12T
# Outline: as §1
# [24] = test system: NCI-H1437
# Outline: as §1
smiles,measurement,setting,value
COc1cc(N2CCC(C(N)=O)CC2)ccc1Nc1nc(N)c(Cl)c(Nc2ccccc2S(=O)(=O)C(C)C)n1 [HG-5-88-01] + COc1cc2c(Oc3ccc(NC(=O)C4(C(=O)Nc5ccc(F)cc5)CC4)cc3F)ccnc2cc1OCCCN1CCOCC1 [Foretinib] (partner 0.25 µM),relative viability,[1]; first compound 0.04 µM,1.13
same,relative viability,[1]; first compound 0.1265 µM,1.39
same,relative viability,[1]; first compound 0.4 µM,0.784
same,relative viability,[1]; first compound 1.265 µM,0.99
same,relative viability,[1]; first compound 4 µM,0.808
same,relative viability,[2]; first compound 0.04 µM,1.01
same,relative viability,[2]; first compound 0.1265 µM,1.05
same,relative viability,[2]; first compound 0.4 µM,1.1
same,relative viability,[2]; first compound 1.265 µM,1.03
same,relative viability,[2]; first compound 4 µM,1.09
same,relative viability,[3]; first compound 0.04 µM,0.705
same,relative viability,[3]; first compound 0.1265 µM,0.942
same,relative viability,[3]; first compound 0.4 µM,0.629
same,relative viability,[3]; first compound 1.265 µM,0.828
same,relative viability,[3]; first compound 4 µM,0.76
same,relative viability,[4]; first compound 0.04 µM,1.07
same,relative viability,[4]; first compound 0.1265 µM,1.04
same,relative viability,[4]; first compound 0.4 µM,1.03
same,relative viability,[4]; first compound 1.265 µM,0.99
same,relative viability,[4]; first compound 4 µM,0.724
same,relative viability,[5]; first compound 0.04 µM,0.869
same,relative viability,[5]; first compound 0.1265 µM,0.849
same,relative viability,[5]; first compound 0.4 µM,0.839
same,relative viability,[5]; first compound 1.265 µM,0.836
same,relative viability,[5]; first compound 4 µM,0.846
same,relative viability,[6]; first compound 0.04 µM,1.01
same,relative viability,[6]; first compound 0.1265 µM,1.05
same,relative viability,[6]; first compound 0.4 µM,0.929
same,relative viability,[6]; first compound 1.265 µM,0.96
same,relative viability,[6]; first compound 4 µM,0.696
same,relative viability,[7]; first compound 0.04 µM,1
same,relative viability,[7]; first compound 0.1265 µM,1.01
same,relative viability,[7]; first compound 0.4 µM,0.963
same,relative viability,[7]; first compound 1.265 µM,0.866
same,relative viability,[7]; first compound 4 µM,0.833
same,relative viability,[8]; first compound 0.04 µM,0.868
same,relative viability,[8]; first compound 0.1265 µM,0.816
same,relative viability,[8]; first compound 0.4 µM,0.942
same,relative viability,[8]; first compound 1.265 µM,0.736
same,relative viability,[8]; first compound 4 µM,0.624
same,relative viability,[9]; first compound 0.04 µM,1.06
same,relative viability,[9]; first compound 0.1265 µM,1.12
same,relative viability,[9]; first compound 0.4 µM,1.05
same,relative viability,[9]; first compound 1.265 µM,0.965
same,relative viability,[9]; first compound 4 µM,0.579
same,relative viability,[10]; first compound 0.04 µM,0.875
same,relative viability,[10]; first compound 0.1265 µM,0.808
same,relative viability,[10]; first compound 0.4 µM,0.827
same,relative viability,[10]; first compound 1.265 µM,0.684
same,relative viability,[10]; first compound 4 µM,0.996
same,relative viability,[11]; first compound 0.04 µM,1.08
same,relative viability,[11]; first compound 0.1265 µM,1.03
same,relative viability,[11]; first compound 0.4 µM,0.974
same,relative viability,[11]; first compound 1.265 µM,0.571
same,relative viability,[11]; first compound 4 µM,0.895
same,relative viability,[12]; first compound 0.04 µM,0.593
same,relative viability,[12]; first compound 0.1265 µM,0.327
same,relative viability,[12]; first compound 0.4 µM,0.353
same,relative viability,[12]; first compound 1.265 µM,0.219
same,relative viability,[12]; first compound 4 µM,0.27
same,relative viability,[13]; first compound 0.04 µM,0.793
same,relative viability,[13]; first compound 0.1265 µM,0.922
same,relative viability,[13]; first compound 0.4 µM,0.998
same,relative viability,[13]; first compound 1.265 µM,0.762
same,relative viability,[13]; first compound 4 µM,1.02
same,relative viability,[14]; first compound 0.04 µM,0.931
same,relative viability,[14]; first compound 0.1265 µM,1.16
same,relative viability,[14]; first compound 0.4 µM,0.73
same,relative viability,[14]; first compound 1.265 µM,0.719
same,relative viability,[14]; first compound 4 µM,0.616
same,relative viability,[15]; first compound 0.04 µM,0.974
same,relative viability,[15]; first compound 0.1265 µM,0.951
same,relative viability,[15]; first compound 0.4 µM,0.806
same,relative viability,[15]; first compound 1.265 µM,0.804
same,relative viability,[15]; first compound 4 µM,0.699
same,relative viability,[16]; first compound 0.04 µM,1.02
same,relative viability,[16]; first compound 0.1265 µM,1.01
same,relative viability,[16]; first compound 0.4 µM,0.946
same,relative viability,[16]; first compound 1.265 µM,0.867
same,relative viability,[16]; first compound 4 µM,0.703
same,relative viability,[17]; first compound 0.04 µM,0.854
same,relative viability,[17]; first compound 0.1265 µM,0.874
same,relative viability,[17]; first compound 0.4 µM,0.856
same,relative viability,[17]; first compound 4 µM,0.649
same,relative viability,[18]; first compound 0.04 µM,0.903
same,relative viability,[18]; first compound 0.1265 µM,0.995
same,relative viability,[18]; first compound 0.4 µM,0.99
same,relative viability,[18]; first compound 1.265 µM,0.768
same,relative viability,[18]; first compound 4 µM,0.805
same,relative viability,[19]; first compound 0.04 µM,1.11
same,relative viability,[19]; first compound 0.1265 µM,1.2
same,relative viability,[19]; first compound 0.4 µM,1.26
same,relative viability,[19]; first compound 1.265 µM,0.751
same,relative viability,[19]; first compound 4 µM,0.836
same,relative viability,[20]; first compound 0.04 µM,0.876
same,relative viability,[20]; first compound 0.1265 µM,0.759
same,relative viability,[20]; first compound 0.4 µM,0.305
same,relative viability,[20]; first compound 4 µM,0.757
same,relative viability,[21]; first compound 0.04 µM,0.927
same,relative viability,[21]; first compound 0.1265 µM,0.782
same,relative viability,[21]; first compound 0.4 µM,0.635
same,relative viability,[21]; first compound 4 µM,0.759
same,relative viability,[22]; first compound 0.04 µM,1.05
same,relative viability,[22]; first compound 0.1265 µM,0.8
same,relative viability,[22]; first compound 0.4 µM,0.793
same,relative viability,[22]; first compound 1.265 µM,0.576
same,relative viability,[22]; first compound 4 µM,0.644
same,relative viability,[23]; first compound 0.04 µM,1.06
same,relative viability,[23]; first compound 0.1265 µM,1.19
same,relative viability,[23]; first compound 0.4 µM,1.05
same,relative viability,[23]; first compound 1.265 µM,0.963
same,relative viability,[23]; first compound 4 µM,0.945
same,relative viability,[24]; first compound 0.04 µM,1.27
same,relative viability,[24]; first compound 0.1265 µM,1.28
same,relative viability,[24]; first compound 0.4 µM,0.912
same,relative viability,[24]; first compound 1.265 µM,1.2
same,relative viability,[24]; first compound 4 µM,1.37
